Test results: PubChem BioAssay AID1963420 (Molecular Pharmacology Branch, DTP, NCI, 2024)

Tested on: 494315-158-R-J1-PDC complex spheroid growth, percent test/control
Assay: Anticancer human tumor 494315-158-R-J1-PDC patient-derived soft tissue sarcoma cell line growth inhibition [Asc]
Conditions: for IC50: curve of first compound; for viability, T/C: stronger effect = lower value
Outline: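 Complex solid-tumor spheroids incorporating human endothelial and mesenchymal stem cells received single agents or combinations over half-log dilution ranges anchored to clinical Cmax.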
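Also: compound exposure lasted seven days after spheroids formed for three days.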

Q: How did the IC50 (second compound 0.1 µM) turn out when Cc1nc(N2CCC3(CC2)COC(C)C3N)c(CO)nc1Sc1ccnc(N)c1Cl (stereo not given) + Cc1c(S(C)(=O)=O)c(-c2cc(F)cc(N3CCN(c4ccc(NS(=O)(=O)c5ccc(NC(CCN6CCC(C(=O)OCCCP(=O)(O)O)CC6)CSc6ccccc6)c(S(=O)(=O)C(F)(F)F)c5)cc4)CC3)c2)c(-c2ccc(Cl)cc2)n1C(C)C was run?
A: 558 nM

Q: And the IC50 (second compound 0.316 µM)?
A: 260 nM

Q: And the IC50 (second compound 1 µM)?
A: 107 nM

Q: What about the IC50 (second compound 3.16 µM) of the same compound?
A: < 9.49 nM

Q: What about the IC50 (second compound 10 µM) of the same compound?
A: 194 nM

Q: And the viability, T/C (second compound 0.1 µM, first compound 0.00949 µM)?
A: 71.1%

Q: What about the viability, T/C (second compound 0.1 µM, first compound 0.03 µM) of the same compound?
A: 80.7%

Q: What about the viability, T/C (second compound 0.1 µM, first compound 0.0949 µM) of the same compound?
A: 69.1%

Q: And the viability, T/C (second compound 0.1 µM, first compound 0.3 µM)?
A: 61.6%

Q: And the viability, T/C (second compound 0.1 µM, first compound 0.949 µM)?
A: 40.5%

Q: And the viability, T/C (second compound 0.1 µM, first compound 3 µM)?
A: 23.5%

Q: What about the viability, T/C (second compound 0.316 µM, first compound 0.00949 µM) of the same compound?
A: 68.3%

Q: What about the viability, T/C (second compound 0.316 µM, first compound 0.03 µM) of the same compound?
A: 70%

Q: And the viability, T/C (second compound 0.316 µM, first compound 0.0949 µM)?
A: 51.8%

Q: And the viability, T/C (second compound 0.316 µM, first compound 0.3 µM)?
A: 55.2%

Q: What about the viability, T/C (second compound 0.316 µM, first compound 0.949 µM) of the same compound?
A: 30.5%

Q: What about the viability, T/C (second compound 0.316 µM, first compound 3 µM) of the same compound?
A: 17.1%

Q: What about the viability, T/C (second compound 1 µM, first compound 0.00949 µM) of the same compound?
A: 71.4%

Q: What about the viability, T/C (second compound 1 µM, first compound 0.03 µM) of the same compound?
A: 71%

Q: What about the viability, T/C (second compound 1 µM, first compound 0.0949 µM) of the same compound?
A: 49.6%

Q: What about the viability, T/C (second compound 1 µM, first compound 0.3 µM) of the same compound?
A: 34.6%

Q: And the viability, T/C (second compound 1 µM, first compound 0.949 µM)?
A: 20.7%

Q: And the viability, T/C (second compound 1 µM, first compound 3 µM)?
A: 21%

Q: What about the viability, T/C (second compound 3.16 µM, first compound 0.00949 µM) of the same compound?
A: 48.8%

Q: And the viability, T/C (second compound 3.16 µM, first compound 0.03 µM)?
A: 41.2%

Q: What about the viability, T/C (second compound 3.16 µM, first compound 0.0949 µM) of the same compound?
A: 43.6%

Q: What about the viability, T/C (second compound 3.16 µM, first compound 0.3 µM) of the same compound?
A: 26.4%

Q: And the viability, T/C (second compound 3.16 µM, first compound 0.949 µM)?
A: 22.6%

Q: And the viability, T/C (second compound 3.16 µM, first compound 3 µM)?
A: 10.3%

Q: What about the viability, T/C (second compound 10 µM, first compound 0.00949 µM) of the same compound?
A: 76.8%

Q: What about the viability, T/C (second compound 10 µM, first compound 0.03 µM) of the same compound?
A: 69.6%

Q: What about the viability, T/C (second compound 10 µM, first compound 0.0949 µM) of the same compound?
A: 67.6%

Q: And the viability, T/C (second compound 10 µM, first compound 0.3 µM)?
A: 38.5%

Q: And the viability, T/C (second compound 10 µM, first compound 0.949 µM)?
A: 22.1%

Q: And the viability, T/C (second compound 10 µM, first compound 3 µM)?
A: 8.76%
